The text below walks through data of patent publication US8614091B2, “PNMT as a novel marker for progenitor cells” (priority 2004, dated 2013).

For experiment [1], the system named is Dbh-/- embryos. Conditions: DOPS in the maternal drinking water; cited from earlier work.
Experiment [2] deals with neonatal rat cardiomyocytes. The experiment can be described thus: Beating rate measurements in cultured neonatal rat cardiomyocytes. It counts as cell-based. Conditions: for decrease in the beating rate: acute, spontaneously beating cultures after 7 d; for effect on beating rate, acute treatment: increasing concentrations, within seconds to 1-2 min after drug application, normal serum. On the procedure:
D) Preparation of rat neonatal cardiomyocyte cultures. […] The heart was immediately removed under aseptic conditions and placed in ice-cold sterile HBSS (no Ca^++ or Mg^++). Enzymatic and mechanical dissociation of cardiomyocytes was then performed using the Neonatal Cardiomyocyte Isolation System supplied by Worthington Biochemicals (Freehold, N.J., U.S.A.). The hearts were minced on ice and digested overnight at 4° C. with purified trypsin (10 μg/mL) in HBSS. On the following morning, the digested tissue was transferred to a 50-mL conical tube and purified soybean trypsin inhibitor (40 μg/mL) was added to terminate trypsinization. The tissue was oxygenated and warmed to 37° C. […] C. with intermittent gentle swirling. Mild trituration was then used to mechanically dissociate the digested tissue, and single-cell suspensions were obtained by filtering this digested material through 70 μm sterile mesh filters. The cells were collected by low-speed centrifugation. The supernatant was discarded and the cell pellet resuspended in DMEM (high glucose, Biofluids, Rockville, Md., U.S.A.) culture medium containing 10% defined iron-supplemented bovine calf serum (Hyclone Laboratories, Logan, Utah, U.S.A.), 2 mM glutamine, and gentamicin sulfate (50 μg/mL). In some experiments, the serum was pretreated with charcoal before adding it to the media (10% volume as above) to remove possible trace amounts of catecholamines that may have been present The cells were then “preplated” to remove fibroblasts, and the remaining cells counted and seeded onto multi-well culture plates at a density of 75,000 cells per cm^2. The media was changed every 2-3 d beginning the day after seeding. Bromodeoxyuridine (0.1 mM) was added to the culture media for the first 3 d to further minimize contamination from fibroblasts.
E) Beating rate measurements. Beating activity of cultured cardiomyocytes was measured by edge-detection using photodiode sensors attached to a monitor screen depicting beating cells viewed by videomicroscopy. […] The photodiode sensor signal was filtered with an 8-pole Bessel low-pass filter (Model 900CT, Frequency Devices, Inc., Havervill, Mass., U.S.A.) with a cutoff frequency of 1000 Hz, and relayed to a PC equipped with a National Instruments data acquisition board and LabView 4.0 processing software. Parallel outputs were also directed to a Gould TA550 chart recorder and an oscilloscope. Data were continuously acquired and stored to disk for later analysis. Drugs were added and immediately mixed in the media overlying the cells in each well. Predrug (baseline) measurements were performed first, and the indicated drug(s) were added as a 100× stock to the preexisting media on each well, and rapidly mixed. Beating rates were remeasured within 2-3 min after drug addition.
F) Data analysis. The number of beating rate measurements was typically obtained from different wells of multi-well plates (usually six wells per plate), seeded from the same preparation of myocytes. Measurements were obtained immediately before and after the addition of specified drugs. In the reserpine experiment, beating rate measurements were obtained at multiple time-points after drug administration. Each experiment was replicated at least twice using independently isolated cultures, and a representative result from each is shown. Unless otherwise indicated, all beating rate measurements were performed on cells that had been cultured for 7-9 d. All data are expressed as mean.+−.SEM. Statistical significance was assessed by one-way ANOVA, with p<0.05 required to reject the null hypothesis. Posthoc testing was performed using Bonferroni's correction for multiple comparisons.

Each structure is given as a SMILES string. “Also recorded” adds a separate entry of the source.

Consider `N[C@H](C(=O)O)[C@H](O)c1ccc(O)c(O)c1` [DOPS], for which the “rescue of Dbh-/- embryos that die of cardiovascular failure in utero” value in experiment [1] is recorded as “rescued”.
For the molecule `CNC[C@H](O)c1cccc(O)c1` [L-phenylephrine], the “reversal of prazosin-induced decrease in beating rate” value in experiment [2] (L-phenylephrine at increasing concentrations, in presence of prazosin 1 μM, charcoal-stripped serum) is “dose-dependent reversal; also recorded: reversed”.
As to `CNC[C@H](O)c1ccc(O)c(O)c1` [epinephrine], the “rescue of timolol-suppressed beating rate in charcoal-stripped serum media” value in experiment [2] (epinephrine 1 μM added in presence of timolol 10 μM) is listed as “fully rescued; also recorded: full recovery of beating rate”. In addition, the “duration of recovery of beating rate” value in experiment [2] (epinephrine 1 μM in presence of timolol 10 μM, charcoal-stripped serum) lay within 30 to 60 min.
Turning to `NC[C@H](O)c1ccc(O)c(O)c1` [norepinephrine], in experiment [2] (NE 1 μM, about 2 min after addition, after 8 h of reserpine 2.5 μM), the “reversal of reserpine-induced decrease in beating rate” value was “largely reversed”.
Take `COc1cc2nc(N3CCN(C(=O)c4ccco4)CC3)nc(N)c2cc1OC` [prazosin]: the figures for the “decrease in the beating rate” value in experiment [2] (1 μM prazosin) and in experiment [2] (10 μM prazosin) were ~25% and > 85%, respectively. In addition, in experiment [2], the “effect on beating rate, acute treatment” value is given as “dose-dependent decreases in the beating rate”. The “effect on beating rate in media with charcoal-stripped serum” value in experiment [2] (prazosin 1 μM vs baseline control) was “significant decreases in beating rates; also recorded: significant reduction in the beating rate”.
On to `COC(=O)[C@H]1[C@H]2C[C@@H]3c4[nH]c5cc(OC)ccc5c4CCN3C[C@H]2C[C@@H](OC(=O)c2cc(OC)c(OC)c(OC)c2)[C@@H]1OC` [reserpine], for which, in experiment [2] (increasing concentrations of reserpine, measured up to 8 h), the “effect on beating rate, catecholamine depletion” value is recorded as “Significant dose-dependent decreases in beating rates”.
With `CC(C)(C)NC[C@H](O)COc1nsnc1N1CCOCC1` [timolol], the “effect on beating rate, acute treatment” value in experiment [2] is recorded as “significant concentration-dependent slowing in the beating rate”. In experiment [2] (timolol 10 μM, continuous, assessed at 24 and 72 h), the “effect on beating activity in media with charcoal-stripped serum” value is reported as “strongly suppressed beating activity”.
